Data on two molecules can be found in publication PMC3426654 (Biochemistry, 2012).

For the assay, the target named is TcUGM (UDP-galactopyranose mutase from Trypanosoma cruzi) (Trypanosoma cruzi, UniProt Q4E1W2). Nature of the assay: X-ray crystal structure, […] Å. Type of assay: binding. As to conditions: UDP complex, pH 7.5.

Turning to `Cc1cc2c(cc1C)N(C[C@H](O)[C@H](O)[C@H](O)COP(=O)(O)OP(=O)(O)OC[C@H]1O[C@@H](n3cnc4c(N)ncnc43)[C@H](O)[C@@H]1O)c1[nH]c(=O)[nH]c(=O)c1N2` [FADH^−], the “X-ray crystal structure, 2.25 Å” value (crystals reduced by soaking in 60 mM dithionite) was “In the reduced enzyme, the FAD exhibits a butterfly-like conformation”. On to `Cc1cc2nc3c(=O)[nH]c(=O)nc-3n(C[C@H](O)[C@H](O)[C@H](O)COP(=O)(O)OP(=O)(O)OC[C@H]3O[C@@H](n4cnc5c(N)ncnc54)[C@H](O)[C@@H]3O)c2cc1C` [FAD], for which the “X-ray crystal structure, 2.25 Å” value (oxidized enzyme) was “In the oxidized state, the electron density maps are consistent with a planar isoalloxazine”.
